Source: PubChem BioAssay AID1259408 (Genetic Toxicology Data Bank (GENE-TOX), 2018)
Active and inactive are the calls of the source. No rule for the calls is given here.

Test system: GENE-TOX genotoxicity assays, various organisms and cells
Assay: GENE-TOX mutagenicity studies
Conditions: for call: Assay Type: In vivo carcinogenicity studies
[1] = Species/Cell Type: Aspergillus nidulans, Assay Type: Forward gene mutation, Assay Code: ASF+, Evaluation Type: Evaluation A (Pre-1980)
[2] = Species/Cell Type: Escherichia coli polA (W3119 vs P3478), Assay Type: Rec-assay, DNA effects (bacterial DNA repair), Assay Code: RE1+, Evaluation Type: Evaluation A (Pre-1980)
[3] = Species/Cell Type: Fischer rat embryo (RLV/1706) cells, Assay Type: Cell transformation, viral enhanced, Assay Code: CTR+, Evaluation Type: Evaluation A (Pre-1980)
[4] = Species/Cell Type: Human, Assay Type: Sister-chromatid exchange (SCE) in vitro, Assay Code: SC1+, Evaluation Type: Evaluation B (Post-1980)
[5] = Species/Cell Type: Mammalian polychromatic erythrocytes, Assay Type: Micronucleus test, chromosome aberrations, Assay Code: MNTT, Evaluation Type: Evaluation B (Post-1980)
[6] = Species/Cell Type: Neurospora crassa, Assay Type: Forward gene mutation, Assay Code: NEF+, Evaluation Type: Evaluation A (Pre-1980)
[7] = Species/Cell Type: Nonhuman, Assay Code: CCG+, Evaluation Type: Evaluation A (Pre-1980)
[8] = Species/Cell Type: Nonhuman, Assay Type: Sister-chromatid exchange (SCE) in vitro, Assay Code: SC2+D, Dose Response: With dose response, Evaluation Type: Evaluation B (Post-1980)
[9] = Species/Cell Type: Salmonella typhimurium (one or more of the five standard strains: TA98, TA100, TA1535, TA1537, and TA1538), Assay Type: Histidine reverse gene mutation, Ames assay, Assay Code: SALT, Evaluation Type: Evaluation A (Pre-1980)
[10] = Species/Cell Type: Drosophila melanogaster, Assay Type: Sex-linked recessive lethal gene mutation, Assay Code: SRLT, Evaluation Type: Evaluation A (Pre-1980)
[11] = Species/Cell Type: Neurospora crassa, Assay Type: Reverse gene mutation, Assay Code: NER+, Evaluation Type: Evaluation A (Pre-1980)
[12] = Species/Cell Type: Rodents, Sex: Male, Assay Type: Dominant lethal test, Assay Code: DLT-, Evaluation Type: Evaluation A (Pre-1980)
[13] = Species/Cell Type: Salmonella typhimurium (one or more of the five standard strains: TA98, TA100, TA1535, TA1537, and TA1538), Assay Type: Histidine reverse gene mutation, Ames assay, Assay Code: SAL+*, Activation: With metabolic activation, Evaluation Type: Evaluation A (Pre-1980)

BrCCBr
mutagenic call [1]: active; positive | mutagenic call (Species/Cell Type: Chinese hamster ovary (CHO) cells, Assay Type: Forward gene mutation at the HPRT locus, Assay Code: CHO+, Evaluation Type: Evaluation B (Post-1980)): active; positive | mutagenic call (Species/Cell Type: Drosophila melanogaster, Assay Type: Sex-linked recessive lethal gene mutation, Assay Code: SRL+, Evaluation Type: Evaluation A (Pre-1980)): active; positive | mutagenic call [2]: active; positive | mutagenic call [3]: active; positive | mutagenic call (Species/Cell Type: Human lymphocytes, Assay Type: Sister-chromatid exchange (SCE) in vitro, Assay Code: SCL+, Evaluation Type: Evaluation B (Post-1980)): active; positive | mutagenic call [4]: active; positive | mutagenic call (Species/Cell Type: Human, Sex: Male, Assay Type: Sperm morphology, Assay Code: SPH+, Evaluation Type: Evaluation A (Pre-1980)): active; positive | mutagenic call [5]: no conclusion | mutagenic call (Species/Cell Type: Mouse germ cells, Sex: Male, Assay Type: Unscheduled DNA synthesis (UDS) in vivo, DNA effects, Assay Code: UDT-, Evaluation Type: Evaluation A (Pre-1980)): inactive; negative | mutagenic call (Species/Cell Type: Mouse lymphoma (L5178Y) cells, Assay Type: Forward gene mutation at the thymidine kinase (TK) locus, chromosome aberrations, Assay Code: L51+, Evaluation Type: Evaluation A (Pre-1980)): active; positive | mutagenic call [6]: active; positive | call [7]: active; positive | mutagenic call [8]: active; positive | mutagenic call (Species/Cell Type: Nonhuman, Assay Type: Sister-chromatid exchange (SCE) in vivo, Assay Code: SC3+, Evaluation Type: Evaluation B (Post-1980)): active; positive | mutagenic call (Species/Cell Type: Plant, Assay Type: Micronucleus test, chromosome aberrations, Assay Code: MNP+, Evaluation Type: Evaluation A (Pre-1980)): active; positive | mutagenic call (Species/Cell Type: Saccharomyces cerevisiae, Assay Type: Mitotic recombination or gene conversion, Assay Code: YEC+, Evaluation Type: Evaluation A (Pre-1980)): active; positive | mutagenic call (Species/Cell Type: Salmonella typhimurium, Assay Type: Forward and reverse gene mutation, body fluid assay, Assay Code: BFUT, Evaluation Type: Evaluation A (Pre-1980)): no conclusion | mutagenic call (Species/Cell Type: Salmonella typhimurium, Assay Type: Forward and reverse gene mutation, host-mediated assay, Assay Code: HMA+, Evaluation Type: Evaluation A (Pre-1980)): active; positive | mutagenic call (Species/Cell Type: Syrian hamster embryo (SA7/SHE) cells, Assay Type: Cell transformation, viral enhanced, Assay Code: CT7+, Evaluation Type: Evaluation A (Pre-1980)): active; positive | mutagenic call (Species/Cell Type: Tradescantia species, Assay Type: Chromosome aberrations, Assay Code: TRC+D, Dose Response: With dose response, Evaluation Type: Evaluation A (Pre-1980)): active; positive | mutagenic call (Species/Cell Type: Tradescantia species, Assay Type: Gene mutation, Assay Code: TRM+D, Dose Response: With dose response, Evaluation Type: Evaluation A (Pre-1980)): active; positive

CCN(CCCCO)N=O
mutagenic call [9]: no conclusion

CN(C)CCNc1ccc(NCCN(C)C)c2c1C(=O)c1c(O)ccc(O)c1C2=O
mutagenic call (Species/Cell Type: Nonhuman, Assay Type: Sister-chromatid exchange (SCE) in vitro, Assay Code: SC2+, Evaluation Type: Evaluation B (Post-1980)): active; positive

Clc1cc(N2CC2)nc(N2CC2)n1
mutagenic call [1]: active; positive

CN(C)N=Nc1ccc(O)cc1
mutagenic call [10]: no conclusion | mutagenic call (Species/Cell Type: Saccharomyces cerevisiae, Assay Type: Mitotic recombination or gene conversion, Assay Code: YEC+/-*, Activation: With metabolic activation, Evaluation Type: Evaluation A (Pre-1980)): inactive; positive without activation, negative with activation

Clc1cc(Cl)c(OCC#CI)cc1Cl
mutagenic call (Species/Cell Type: Neurospora crassa, Assay Type: Aneuploidy, chromosome aberrations, Assay Code: NEN-, Evaluation Type: Evaluation A (Pre-1980)): inactive; negative

CCC1CO1 (stereo not given)
mutagenic call (Species/Cell Type: Escherichia coli polA (W3110 vs P3478), Assay Type: Rec-assay, DNA effects (bacterial DNA repair), Assay Code: RE2+, Evaluation Type: Evaluation A (Pre-1980)): active; positive | mutagenic call [2]: active; positive | mutagenic call [3]: active; positive | mutagenic call (Species/Cell Type: Mouse (BALB/c-3T3) cells, Assay Type: Cell transformation, Assay Code: CTB-, Evaluation Type: Evaluation A (Pre-1980)): inactive; negative | mutagenic call [11]: active; positive | call (Species/Cell Type: Nonhuman, Assay Code: CCGT, Evaluation Type: Evaluation A (Pre-1980)): no conclusion | mutagenic call (Species/Cell Type: Saccharomyces cerevisiae, Assay Type: Mitotic recombination or gene conversion, Assay Code: YEH+, Evaluation Type: Evaluation A (Pre-1980)): active; positive | mutagenic call (Species/Cell Type: Salmonella typhimurium (one or more of the five standard strains: TA98, TA100, TA1535, TA1537, and TA1538), Assay Type: Histidine reverse gene mutation, Ames assay, Assay Code: SAL+, Evaluation Type: Evaluation A (Pre-1980)): active; positive | mutagenic call (Species/Cell Type: Syrian hamster embryo (SHE) cells, Assay Type: Cell transformation, clonal assay, Assay Code: CTC+, Evaluation Type: Evaluation A (Pre-1980)): active; positive

CC(=O)Nc1ccc(CC(=O)c2ccccc2)cc1
mutagenic call [9]: no conclusion

O=[N+]([O-])c1ccc(-c2ncn[nH]2)o1
mutagenic call (Species/Cell Type: Escherichia coli WP2, Assay Type: Tryptophan reverse gene mutation, Assay Code: WP2-, Evaluation Type: Evaluation A (Pre-1980)): inactive; negative | mutagenic call (Species/Cell Type: Escherichia coli WP2 UVRA, Assay Type: Tryptophan reverse gene mutation, Assay Code: WPU+, Evaluation Type: Evaluation A (Pre-1980)): active; positive

Cc1c[nH]c(=O)[nH]c1=O
mutagenic call [10]: no conclusion | mutagenic call (Species/Cell Type: Nonhuman, Assay Type: Sister-chromatid exchange (SCE) in vitro, Assay Code: SC2T, Evaluation Type: Evaluation B (Post-1980)): no conclusion

COP(=S)(OC)Oc1ccc([N+](=O)[O-])c(C)c1
mutagenic call [10]: no conclusion | mutagenic call [4]: active; positive | mutagenic call [5]: no conclusion | mutagenic call [12]: inactive; negative | mutagenic call (Species/Cell Type: Salmonella typhimurium, Assay Type: Forward and reverse gene mutation, host-mediated assay, Assay Code: HMA-, Evaluation Type: Evaluation A (Pre-1980)): inactive; negative

CCOP(=S)(OCC)SC1OCCOC1SP(=S)(OCC)OCC (stereo not given)
call (Species/Cell Type: Nonhuman, Assay Code: CCG-, Evaluation Type: Evaluation A (Pre-1980)): inactive; negative

CN1CCN(CC(=O)N2c3ccccc3C(=O)Nc3cccnc32)CC1
mutagenic call [5]: no conclusion

Cc1ccc(S(N)(=O)=O)cc1
mutagenic call [10]: no conclusion | mutagenic call [5]: no conclusion

OC1C=Cc2c(c3cc4ccccc4cc3c3ccccc23)[C@H]1O (stereo not given in full)
mutagenic call [8]: active; positive

Cc1nc(N)cc2[nH]c3ccccc3c12
mutagenic call (Species/Cell Type: Chinese hamster ovary (CHO) cells, Assay Type: Forward gene mutation at the HPRT locus, Assay Code: CHO+*, Activation: With metabolic activation, Evaluation Type: Evaluation B (Post-1980)): active; positive | mutagenic call (Species/Cell Type: Human lymphocytes, Assay Type: Sister-chromatid exchange (SCE) in vitro, Assay Code: SCL+D, Dose Response: With dose response, Evaluation Type: Evaluation B (Post-1980)): active; positive | mutagenic call (Species/Cell Type: Human, Assay Type: Sister-chromatid exchange (SCE) in vitro, Assay Code: SC1+D, Dose Response: With dose response, Evaluation Type: Evaluation B (Post-1980)): active; positive | call [7]: active; positive | mutagenic call (Species/Cell Type: Nonhuman, Assay Type: Sister-chromatid exchange (SCE) in vitro, Assay Code: SC2+D*, Activation: With metabolic activation, Dose Response: With dose response, Evaluation Type: Evaluation B (Post-1980)): active; positive | mutagenic call (Species/Cell Type: Nonhuman, Assay Type: Sister-chromatid exchange (SCE) in vivo, Assay Code: SC3+D, Dose Response: With dose response, Evaluation Type: Evaluation B (Post-1980)): active; positive | mutagenic call [13]: active; positive

COc1cc2c(c(O)c1OC)C13CCC(OC)CC1N(CC3)C2 (stereo not given)
mutagenic call (Species/Cell Type: Mammalian polychromatic erythrocytes, Assay Type: Micronucleus test, chromosome aberrations, Assay Code: MNT+, Evaluation Type: Evaluation B (Post-1980)): active; positive

ClCC1(Cl)OC1Cl (stereo not given)
mutagenic call [6]: active; positive | mutagenic call [11]: active; positive

CCCOC(=O)c1cc(O)c(O)c(O)c1
mutagenic call (Species/Cell Type: Human, Assay Type: Sister-chromatid exchange (SCE) in vitro, Assay Code: SC1T, Evaluation Type: Evaluation B (Post-1980)): no conclusion

CCC(=O)ONC(=O)c1ccc2ccccc2c1
mutagenic call [8]: active; positive

NC[C@@H](O)CCl
mutagenic call [12]: inactive; negative

CCc1cccc(C)c1N(C(=O)CCl)C(C)COC (stereo not given)
mutagenic call (Species/Cell Type: Zea mays (corn), Assay Type: Gene mutation, Assay Code: ZEM-, Evaluation Type: Evaluation A (Pre-1980)): inactive; negative

O=[N+]([O-])c1ccc(N=Nc2c(O)ccc3ccccc23)c(Cl)c1
mutagenic call [13]: active; positive

O=CCBr
mutagenic call [2]: active; positive

Nc1ccc(Cl)c(N)c1
call [7]: active; positive

Cc1cc(=O)n(-c2ccccc2)n1C
mutagenic call (Species/Cell Type: Salmonella typhimurium (one or more of the five standard strains: TA98, TA100, TA1535, TA1537, and TA1538), Assay Type: Histidine reverse gene mutation, Ames assay, Assay Code: SAL-, Evaluation Type: Evaluation A (Pre-1980)): inactive; negative
